In US20040214721A1 (priority 2001, published 2004):

| SMILES | melting point |
| --- | --- |
| CCC#CCOc1ccc([C@@H]2CCCC[C@H]2NC(=O)[C@@H](NS(=O)(=O)CC)C(C)C)cc1OC | 133 to 136 °C |
| COc1ccc(-c2ccccc2NC(=O)CNS(C)(=O)=O)cc1OC | 158 to 160 °C |
| C#CCOc1ccc([C@@H]2CCCC[C@H]2NC(=O)[C@@H](NS(C)(=O)=O)C(C)C)cc1OC | 183 to 185 °C |
| CCOc1ccc(-c2ccccc2NC(=O)[C@@H](NS(C)(=O)=O)C(C)C)cc1OC | 95 to 98 °C |
| C#CCOc1ccc([C@@H]2CCCC[C@H]2NC(=O)[C@@H](NS(=O)(=O)CC)C(C)C)cc1OC | 149 to 151 °C |
| CCC#CCOc1ccc([C@@H]2CCCC[C@H]2NC(=O)[C@@H](NS(C)(=O)=O)C(C)C)cc1OC | 166 to 168 °C |
| COc1ccc(-c2ccccc2NC(=O)[C@@H](NS(C)(=O)=O)C(C)C)cc1OC | 68 to 70 °C |
| CCC#CCOc1ccc([C@@H]2CCCC[C@H]2NC(=O)[C@@H](NS(=O)(=O)N(C)C)C(C)C)cc1OC | 158 to 160 °C |
